According to the OligoGym collection:
“And” between values parts separate entries of the source, which are not always exact repeats. Identical values can stand only once. After the bases stand the sugars from the 5' end (letter, count) and the backbone: PS all phosphorothioate, else s phosphorothioate and o phosphodiester by linkage. Methylation of C is not given here. e = 2'-O-(2-methoxyethyl) (MOE); k = constrained ethyl (cEt); d = 2'-deoxy (DNA); m = 2'-O-methyl

Biological target: HSD17B13
Settings: ASO, HepaRG

Sequence | target mRNA inhibition (1 µM) | further results
TCCCAACCAAACTTCC (sugars k3 d10 k3, PS) | 82% | target mRNA inhibition (0.02 µM): 0%; target mRNA inhibition (0.078 µM): 0%; target mRNA inhibition (0.313 µM): 7%; target mRNA inhibition (1.25 µM): 25%; target mRNA inhibition (5 µM): 63% and 50%
TCCCACAAAACTAACC (sugars k3 d10 k3, PS) | 24% | –
TCCCACAGAACCAATA (sugars k3 d10 k3, PS) | 24% | –
TCCGAAAAAAGTGGAG (sugars k3 d10 k3, PS) | 12% | –
TCCTACAGTGCTTAGT (sugars k3 d10 k3, PS) | 44% | –
TCCTCCACACCGCGCT (sugars k3 d10 k3, PS) | 20% | –
TCCTGTGTTAGCTTTA (sugars k3 d1 m1 d8 k3, PS) | 72% | –
TCCTGTGTTAGCTTTA (sugars k3 d10 k3, PS) | 56% | –
TCCTTTGTATTTCGCT (sugars k3 d10 k3, PS) | 68% | –
TCGGTCACCTTTCATA (sugars k3 d9 k3 e1, PS) | 72% | –
TCGGTCACCTTTCATA (sugars k3 d10 k3, PS) | 64% | –
TCGGTCACCTTTCATA (sugars kkdddddddddkekek, PS) | 63% | –
TCGGUCACCTTTCATA (sugars k3 d1 m1 d8 k3, PS) | 21% | –
TCTAAACATCTCTGGG (sugars k3 d9 k3 e1, PS) | 42% | –
TCTAAAGTGCTGGTTG (sugars k3 d10 k3, PS) | 34% | –
TCTAAATACCCTTGGT (sugars k3 d10 k3, PS) | 26% | –
TCTAAGTTAGCCCCCA (sugars kkdddddddddkekek, PS) | 19% | –
TCTACACTAATATTGA (sugars k3 d10 k3, PS) | 21% | –
TCTAGGATGATGTTCA (sugars k3 d10 k3, PS) | 64% | –
TCTATAGCTAAGTATA (sugars k3 d10 k3, PS) | 0% | –
TCTATCAGACTTCTTA (sugars k3 d10 k3, PS) | 49% | –
TCTCAAGGAGTACTTC (sugars k3 d10 k3, PS) | 80% | target mRNA inhibition (0.02 µM): 26%; target mRNA inhibition (0.078 µM): 32%; target mRNA inhibition (0.313 µM): 58%; target mRNA inhibition (1.25 µM): 82%; target mRNA inhibition (5 µM): 91%

Sequence | target mRNA inhibition (1 µM) | further results
TCTCTGGGACCAAGGA (sugars k3 d10 k3, PS) | 56% | –
TCTCTTGACAATGGTT (sugars k3 d10 k3, PS) | 70% | target mRNA inhibition (0.02 µM): 2%; target mRNA inhibition (0.078 µM): 14%; target mRNA inhibition (0.313 µM): 44%; target mRNA inhibition (1.25 µM): 86%; target mRNA inhibition (5 µM): 86%
TCTGGGACCAAGGATA (sugars k3 d10 k3, PS) | 30% | –
TCTTAAACCTTCCCTG (sugars k3 d10 k3, PS) | 21% | –
TCTTAAGAGAAGGTGC (sugars k3 d10 k3, PS) | 39% | –
TCTTAGCTGTGCACTC (sugars k3 d9 k3 e1, PS) | 52% | –
TCTTATGTAATAGCCA (sugars k3 d10 k3, PS) | 77% | target mRNA inhibition (0.02 µM): 0%; target mRNA inhibition (0.078 µM): 2%; target mRNA inhibition (0.313 µM): 35%; target mRNA inhibition (1.25 µM): 74%; target mRNA inhibition (5 µM): 91%
TCTTCTCTTGGGTCCA (sugars k3 d10 k3, PS) | 59% | –
TCTTGACAATGGTTGA (sugars k3 d10 k3, PS) | 75% | –
TCTTGACAATGGTTGC (sugars k3 d1 m1 d8 k3, PS) | 67% | target mRNA inhibition (0.02 µM): 25%; target mRNA inhibition (0.078 µM): 16%; target mRNA inhibition (0.313 µM): 39%; target mRNA inhibition (1.25 µM): 60%; target mRNA inhibition (5 µM): 87%
TCTTGACAATGGTTGC (sugars k3 d9 k3 e1, PS) | 77% | target mRNA inhibition (0.02 µM): 0%; target mRNA inhibition (0.078 µM): 0%; target mRNA inhibition (0.313 µM): 11%; target mRNA inhibition (1.25 µM): 46%; target mRNA inhibition (5 µM): 79%
TCTTGACAATGGTTGC (sugars k3 d10 k3, PS) | 77% | –
TCTTGACAATGGTTGC (sugars kkdddddddddkekek, PS) | 37% | –
TGAAAACTCAGCCAGC (sugars k3 d10 k3, PS) | 77% | target mRNA inhibition (0.02 µM): 15%; target mRNA inhibition (0.078 µM): 33%; target mRNA inhibition (0.313 µM): 65%; target mRNA inhibition (1.25 µM): 80%; target mRNA inhibition (5 µM): 95%
TGAAATCTTGTGTAAC (sugars k3 d10 k3, PS) | 43% | –
TGAACCGTATTCCCAA (sugars k3 d10 k3, PS) | 76% | target mRNA inhibition (0.02 µM): 26%; target mRNA inhibition (0.078 µM): 8%; target mRNA inhibition (0.313 µM): 59%; target mRNA inhibition (1.25 µM): 81%; target mRNA inhibition (5 µM): 93%
TGAAGCCACTGTGACG (sugars k3 d10 k3, PS) | 49% | –
TGAAGTTAGTATAGTT (sugars k3 d10 k3, PS) | 43% | –
TGAAGTTAGTATAGTT (sugars kkdddddddddkekek, PS) | 46% | –
TGACAATGGTTGATAG (sugars k3 d1 m1 d8 k3, PS) | 42% | –
TGACAATGGTTGCCAC (sugars k3 d10 k3, PS) | 40% | –
TGACAATGGTTGCCAC (sugars kkdddddddddkekek, PS) | 38% | –

Sequence | target mRNA inhibition (1 µM) | further results
TGACATAACTTCATAG (sugars k3 d10 k3, PS) | 51% | –
TGACATAGACATGTGT (sugars k3 d10 k3, PS) | 42% | –
TGACTGCTGCTAGTGC (sugars k3 d10 k3, PS) | 50% | –
TGAGAGTATAAATGGC (sugars k3 d10 k3, PS) | 67% | –
TGATAAAATAGGGTGC (sugars k3 d10 k3, PS) | 44% | –
TGATAATTTGGTGTCA (sugars k3 d10 k3, PS) | 3% | –
TGATACACCAATGCAG (sugars k3 d10 k3, PS) | 44% | –
TGATATTCTGTGGCAT (sugars k3 d10 k3, PS) | 69% | target mRNA inhibition (0.02 µM): 0%; target mRNA inhibition (0.078 µM): 0%; target mRNA inhibition (0.313 µM): 22%; target mRNA inhibition (1.25 µM): 64%; target mRNA inhibition (5 µM): 82%
TGATCTCTTAGCTGTG (sugars k3 d10 k3, PS) | 59% | –
TGATGTAGTGGGAGTC (sugars k3 d1 m1 d8 k3, PS) | 43% | –
TGATGTAGTGGGAGTC (sugars kkdddddddddkekek, PS) | 46% | –
TGATTGAGTTCTCCAC (sugars k3 d10 k3, PS) | 48% | –
TGCAAAGTTAATAGGA (sugars k3 d10 k3, PS) | 43% | –
TGCAAGATTTACTTCC (sugars k3 d10 k3, PS) | 45% | –
TGCAAGTTTATCAGTA (sugars k3 d10 k3, PS) | 70% | target mRNA inhibition (0.02 µM): 28%; target mRNA inhibition (0.078 µM): 32%; target mRNA inhibition (0.313 µM): 62%; target mRNA inhibition (1.25 µM): 86%; target mRNA inhibition (5 µM): 92%
TGCAGATTATTATGTG (sugars k3 d10 k3, PS) | 38% | –
TGCATAAGAGATGAGT (sugars k3 d10 k3, PS) | 19% | –
TGCATCTTAAGATACC (sugars k3 d10 k3, PS) | 81% | –
TGCATTAATGCCACCC (sugars k3 d10 k3, PS) | 22% | –
TGCCAAACCAATGTTT (sugars k3 d10 k3, PS) | 32% | –
TGCCAAACCAATGTTT (sugars kkdddddddddkekek, PS) | 61% | –
TGCCAACACTAATCTC (sugars k3 d10 k3, PS) | 30% | –

Sequence | target mRNA inhibition (1 µM) | further results
TGCCTGCTGAAACTTG (sugars k3 d10 k3, PS) | 31% | –
TGCTAAAAGCTCACCA (sugars k3 d10 k3, PS) | 49% | –
TGCTAGTGCCAAACCA (sugars k3 d10 k3, PS) | 78% | target mRNA inhibition (0.02 µM): 3%; target mRNA inhibition (0.078 µM): 9%; target mRNA inhibition (0.313 µM): 49%; target mRNA inhibition (1.25 µM): 58%; target mRNA inhibition (5 µM): 89%
TGCTGGAACAATATGG (sugars k3 d10 k3, PS) | 36% | –
TGGAAACATGCTTGGC (sugars k3 d10 k3, PS) | 62% | –
TGGAAGATTAATCATA (sugars k3 d10 k3, PS) | 12% | –
TGGAATGCTACTTGAA (sugars k3 d9 k3 e1, PS) | 57% | –
TGGATTACATACAAGA (sugars k3 d10 k3, PS) | 68% and 50% | target mRNA inhibition (0.02 µM): 0%; target mRNA inhibition (0.078 µM): 0%; target mRNA inhibition (0.313 µM): 21%; target mRNA inhibition (1.25 µM): 58%; target mRNA inhibition (5 µM): 87%
TGGCATGGCTACAGAT (sugars k3 d1 m1 d8 k3, PS) | 57% | –
TGGCATGGCTACAGAT (sugars k3 d9 k3 e1, PS) | 68% | target mRNA inhibition (0.02 µM): 26%; target mRNA inhibition (0.078 µM): 22%; target mRNA inhibition (0.313 µM): 39%; target mRNA inhibition (1.25 µM): 75%; target mRNA inhibition (5 µM): 70%
TGGCATGGCTACAGAT (sugars k3 d10 k3, PS) | 57% | –
TGGCTACAGATTGGAA (sugars k3 d10 k3, PS) | 55% | –
TGGGACCAAGGATATA (sugars k3 d1 m1 d8 k3, PS) | 51% | –
TGGGACCAAGGATATA (sugars k3 d9 k3 e1, PS) | 55% | –
TGGGACCAAGGATATA (sugars k3 d10 k3, PS) | 20% | –
TGGGATAGTGGAGGAA (sugars k3 d10 k3, PS) | 13% | –
TGGTAACGGTGATCAA (sugars k3 d9 k3 e1, PS) | 35% | –
TGGTAAGGAGTAGTGG (sugars k3 d10 k3, PS) | 34% | –
TGGTGAACCCAGTATT (sugars k3 d10 k3, PS) | 0% | –
TGGTTCAGTCCTTGTG (sugars k3 d10 k3, PS) | 50% | –
TGTAAAGTTTGTTAGA (sugars k3 d10 k3, PS) | 35% | –
